Consider 8 substances from patent US20080280934A1, “Method of Preparing Porphyrin Derivatives, Porphyrin Derivatives, Uses Thereof and Pharmaceutical Compositions” (priority 2003, published 2008).

Series [1] in a line: maximum absorption wavelength (λmax). As to conditions: for maximum absorption wavelength: in both dichloromethane and methanol; for λmax / absorption maximum: solvent not stated. In kind it is physicochemical. The method, then:
Refluxing of pure 4a in trichloroacetic acid at 175° C. leads surprising to a new peri-annulated quinoporphyrin-product (5a). The oxidizing agent performing the final oxidation (closing the heterocyclic ring of the quinoline-ring system) to result in the new product is oxygen from the air, similar to what is known for other reactions involving porphyrins (see Woodward, J., Am.. Chem. Soc.. (1960) […]., pp. 3800-3802). The λmax of this new compound 5a is, compared with mesoporphyrindimethylester 1, shifted towards the red (respective values for λmax are: 567 nm and 638 nm).
If desired the metal ion used (here nickel) may be removed in a conventional manner (5 min. conc. sulphuric acid at room temperature, the time required to dissolve completely), yielding the corresponding compounds 6a-6d. Noteworthy are the maximum absorption wavelengths for 6a, 6b, 6c and 6d which are 681, 688, 688 and 683 nm respectively (in both dichloromethane and methanol),which are very long for entirely unsaturated porphyrin ring systems. Benzylation of the quinoline-ring system nitrogen with benzyl bromide/ potassium iodide leads to formation of a cationic benzylated quinoporphyrin (18 N-benzylquinolinium[4,4a,5,6-efg]-annulated mesoporphyrin dimethylester with an absorption maximum at 755 nm. Hydrolysation of this compound yields N-benzylquinolinium[4,4a,5,6-efg]-annulated mesoporphyrin (19).

Series [2] can be described thus: solubility of the purified porphyrin in demineralized water. The format is physicochemical. As to conditions: at about pH 8, demineralized water. Here is the method: A solution of 0.61 gram of 6a in 25 ml tetrahydrofuran (THF) was mixed with a solution of 0.20 gram sodium hydroxide in 120 ml of water and refluxed during 1 hour. The reaction was followed with silicagel thin layer chromatography using THF as the eluens. When the reaction is finished THF and water were removed by distillation under reduced pressure until the volume was approximately 20 ml. The crude product was purified over 10 grams of CM Sephadex cation exchanger (bead size 40-120 μm) from Sigma-Aldrich, which was first treated with 1 M hydrochloric acid and then washed with demineralized water. First the porphyrin solution was carried onto the sephadex gel, and washed with demineralized water to remove salts. The purified porphyrin was eluted with 1% ammoniumhydroxide in water. The resulting brown solution was evaporated to dryness, then demineralized water was added and again the solution was evaporated to dryness to remove traces of ammonia. […] Yet this solubility of about 0.5 mg/ml at about pH 8 is better than for other porphyrin compounds such as MTHPC which is currently used in photodynamic therapy. 0.45 grams (77%) of the dicarboxylic acid 7a was obtained.

As for “2′-methoxycarbonylquino[4,4a,5,6-jkl]-annulated 12-demethyl-13-de[2-(methoxycarbonyl)ethyl]mesoporphyrin dimethylester [6b]”, the maximum absorption wavelength in series [1] stood at 688 nm.
Still for that read-out and setting: in the case of “2′-methoxycarbonylquino[4,4a,5,6-qrs]-annulated 18-demethyl-17-de[2-(methoxycarbonyl)ethyl]mesoporphyrin dimethylester [6c]” it was 688 nm.
With “N-benzylquinolinium[4,4a,5,6-efg]-annulated mesoporphyrin dimethylester [compound 18]”, the “λmax / absorption maximum” value in series [1] was found to be 755 nm.
Take “mesoporphyrin dimethylester [compound 1, reference compound]”: in series [1], the “λmax / absorption maximum” value was determined as 567 nm.
Substance “quino[4,4a,5,6-abt]-annulated 2-demethyl-3-deethylmesoporphyrin dimethylester [6d]” had a maximum absorption wavelength in series [1] of 683 nm.
With “quino[4,4a,5,6-efg]-annulated 7-demethyl-8-deethylmesoporphyrin [7a]”, the solubility entry in series [2] is listed as “about 0.5 mg/ml”.
Regarding “quino[4,4a,5,6-efg]-annulated 7-demethyl-8-deethylmesoporphyrin dimethylester [6a]”, in series [1], the maximum absorption wavelength turned out to be 681 nm.
As for “quino[4,4a,5,6-efg]-annulated 7-demethyl-8-deethylmesoporphyrin dimethylester nickel (II) complex [5a]”, the “λmax / absorption maximum” value in series [1] was determined as 638 nm.
